We go through 16 compounds from US20250188102A1, “TRIAZINE COMPOUND, INTERMEDIATE THEREOF, PREPARATION METHOD THEREFOR AND USE THEREOF” (priority 2022, published 2025).

Molecules are shown by their SMILES. pEC50, pIC50: −log10 of the molar value. Read-outs that look alike come from different tables or passages of the source.

The subject of data set [1] is SARS-CoV-2. As to conditions: read-out: viral inhibitory activity EC50, cited from earlier work.
The test system of data set [2] is Huh7 cells.
Data set [3] in a line: in vitro. Format: cell-based. As to conditions: human. How it is done: (§1) Nine cell lines originated from different human tissues (Table 2) are selected to evaluate the cytotoxicity of the tested compounds. Sorafenib or Taxol are used as cytotoxic control compounds. The cells and compounds are added to the 96-well test plate. Cells are cultured in culture medium containing 10% FBS, 5% CO2 and 37° C. for 3 days, and then cell viability was detected by CellTiter-Glo reagent. The raw data are used for compound cytotoxicity calculations. The dose-response curves of the compounds are analyzed by GraphPad Prism software and CC50 values are calculated. The compound will be tested at 8 concentration points, 3-fold series dilution, and 3-compound pores.

For data set [4], the system named is SARS-CoV-2 strain. Put plainly: microbe, parasite or virus in culture. As to conditions: Severe acute respiratory syndrome coronavirus 2, read-out: EC50 of SARS-CoV-2 strain.
A short description of data set [5]: in vitro. As to conditions: human. Format: cell-based. How it is done:
as §1
This is another data set of the same source.

Data set [6] can be described thus: in vitro. As to conditions: human.
Data set [7] deals with HepG2 cells.
Data set [8] in a line: in vivo. As to conditions: male, Sprague-Dawley, rat; for AUC(0-inf): AUC0-∞; for half-life: T1/2.
A short description of data set [9]: in vitro. As to conditions: human. Format: cell-based. How it is done: as §1
The source holds these as a separate data set.

The nature of data set [10]: in vitro. Format: cell-based. As to conditions: human. How it is done:
as §1
This is another data set of the same source.

Data set [11] in a line: in vitro. In kind it is cell-based. As to conditions: human. How it is done: as §1
The source holds these as a separate data set.

Data set [12] can be described thus: in vitro. In kind it is cell-based. As to conditions: human. How it is done:
as §1
The source holds these as a separate data set.

Data set [13] is described as follows: in vitro. Format: cell-based. As to conditions: human. How it is done: as §1
This is another data set of the same source.

The nature of data set [14]: in vitro. Format: cell-based. As to conditions: human. How it is done:
as §1
The source holds these as a separate data set.

The nature of data set [15]: in vitro. As to conditions: human. In kind it is cell-based. How it is done:
as §1
The source holds these as a separate data set.

The nature of data set [16]: in vitro. As to conditions: rat, hepatocytes. Format: in vitro ADME.
The nature of data set [17]: in vitro. In kind it is in vitro ADME, people. As to conditions: human, hepatocytes.
Data set [18] in a line: in vitro. As to conditions: rat, microsomes.
For data set [19] the following is noted: liver microsomes; rat. Background: Microsomes from liver hold many membrane-bound enzymes, among them those of drug oxidation.
For data set [20], the target named is NL63 Mpro protease (Human coronavirus NL63 (HCoV-NL63), UniProt P0C6X5). Put plainly: Mpro enzymatic assay, other human coronaviruses: NL63. Format: biochemical. As to conditions: read-out: Enzymatic Determination of IC50 of compound by Mpro, NL63.
Sequence of NL63 Mpro protease (P0C6X5 2940-3242 limits assumed): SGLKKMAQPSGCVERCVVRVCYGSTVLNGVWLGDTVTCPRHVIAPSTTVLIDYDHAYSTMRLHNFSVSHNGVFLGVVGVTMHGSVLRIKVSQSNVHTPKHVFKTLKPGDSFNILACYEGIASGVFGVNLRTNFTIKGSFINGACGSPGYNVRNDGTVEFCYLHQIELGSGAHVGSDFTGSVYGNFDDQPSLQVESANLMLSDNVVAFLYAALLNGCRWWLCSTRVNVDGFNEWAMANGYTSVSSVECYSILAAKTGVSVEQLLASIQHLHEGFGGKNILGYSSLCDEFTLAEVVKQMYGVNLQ
In data set [21] the target is HKU1 Mpro protease (Human coronavirus HKU1 (isolate N1) (HCoV-HKU1), UniProt P0C6X2). Format: biochemical. As to conditions: read-out: Enzymatic Determination of IC50 of compound by Mpro, HKU1.
Sequence of HKU1 Mpro protease (P0C6X2 3335-3637 limits assumed): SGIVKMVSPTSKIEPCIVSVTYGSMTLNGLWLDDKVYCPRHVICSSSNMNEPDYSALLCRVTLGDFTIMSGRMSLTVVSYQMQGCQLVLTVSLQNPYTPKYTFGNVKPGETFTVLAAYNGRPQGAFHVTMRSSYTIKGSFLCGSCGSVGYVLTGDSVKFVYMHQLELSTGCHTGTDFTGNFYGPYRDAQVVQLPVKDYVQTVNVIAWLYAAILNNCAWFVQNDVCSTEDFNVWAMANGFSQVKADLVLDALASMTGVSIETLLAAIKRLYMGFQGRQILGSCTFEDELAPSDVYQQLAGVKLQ
The target in data set [22] is MERS Mpro protease (Middle East respiratory syndrome-related coronavirus (isolate United Kingdom/H123990006/2012) (MERS-CoV) (Betacoronavirus England 1), UniProt K9N7C7). Put plainly: biochemical.
Sequence of MERS Mpro protease (K9N7C7 3248-3553 limits assumed): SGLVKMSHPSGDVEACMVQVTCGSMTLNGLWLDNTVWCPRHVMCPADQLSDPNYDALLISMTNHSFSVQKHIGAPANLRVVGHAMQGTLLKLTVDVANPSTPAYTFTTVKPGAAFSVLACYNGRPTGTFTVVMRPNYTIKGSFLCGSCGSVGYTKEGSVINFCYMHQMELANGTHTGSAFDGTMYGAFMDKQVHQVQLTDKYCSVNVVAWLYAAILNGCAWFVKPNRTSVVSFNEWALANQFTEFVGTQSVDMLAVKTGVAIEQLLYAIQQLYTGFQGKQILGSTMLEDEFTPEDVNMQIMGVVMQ
Where [23] appears, read: CCRF-CEM, 3 days, read-out: CC50.
[24] abbreviates: Colo-205, 3 days, read-out: CC50.
The mark [25] stands for this setting: rat, stated before the oral figures (intravenous per Table 11).

Regarding `CC(C)(C)[C@H](NC(=O)C(F)(F)F)C(=O)N1C[C@H]2[C@@H]([C@H]1C(=O)N[C@H](C#N)C[C@@H]1CCNC1=O)C2(C)C` [PF-07321332], the results for the pEC50 in data set [1] (A549 cells expressing ACE2 protein), in data set [1] (HeLa cells expressing ACE2 protein) and in data set [1] (human airway epithelial cells) were 7.25, 7.00 and 7.21, respectively.
Take `O=C(O)/C=C/C(=O)O.[2H]C([2H])([2H])n1cnc(Cn2c(=O)[nH]/c(=N\c3cc4cn(C)nc4cc3Cl)n(Cc3cc(F)c(F)cc3F)c2=O)n1` [SHEN211]: the CC50 in [2] is over 1 microns; in data set [3] (HIHeLa, 3 days, read-out: CC50), over 100 µM; in data set [5] (HEK293, 3 days, read-out: CC50), over 100 µM; in [6] (galactose culture HepG2 CC50) it was 206 µM; in data set [6] (glucose culture HepG2 CC50), 202 µM; in data set [9] (HEp2, 3 days, read-out: CC50) it was over 100 µM. Besides, the CC50 in data set [10] (setting [23]) was over 100 µM; in data set [11] (HepG2, 3 days, read-out: CC50), over 100 µM; in [12] (Molt-4, 3 days, read-out: CC50), over 100 µM; in data set [13] (setting [24]), over 100 µM; in [14] (MRC-5, 3 days, read-out: CC50), over 100 µM; in [15] (A375, 3 days, read-out: CC50), over 100 µM. Moreover, the pEC50 in data set [4] was 6.68 to 7.08. In addition, the “mitochondrial toxicity to human HepG2 cells” value in data set [7] was “more than 200 μM”. Also, the “difference between the CC50 and EC50” value in data set [7] (human) is listed as “more than 476 times”. The AUC(0-inf) in [8] (po, 5 mg/kg, SD rat) stood at 45500 ng·h/mL. The Cmax in data set [8] (po, 5 mg/kg, SD rat) worked out at 4710 ng/mL. The compound further showed a half-life in data set [8] (po, 5 mg/kg) of 3.22 h. The Tmax in [8] (po, 5 mg/kg, SD rat) was 2 h.
In turn, `[2H]C([2H])([2H])n1cnc(Cn2c(=O)[nH]/c(=N\c3cc4cn(C)nc4cc3Cl)n(Cc3cc(F)c(F)cc3F)c2=O)n1` [Compound I-2] showed a half-life at 0.5 μM in data set [16] of 89 h. In addition, in data set [8] (iv, 0.5 mg/kg, SD rat), the AUC(0-inf) is 7940 ng·h/mL, the Cmax amounted to 2880 ng/mL and the Tmax came to 0.03 h. Further, the half-life in [8] (iv, 0.5 mg/kg) was 3.36 h. In data set [8] (po, 5 mg/kg, SD rat), the AUC(0-inf) turned out to be 65300 ng·h/mL, the Cmax came to 6020 ng/mL and the Tmax came out at 2.33 h. The compound also had a half-life in data set [8] (po, 5 mg/kg) of 3.04 h. Further, under “rat, after oral administration”, the “AUC compared with S-217622” value was determined as 144% and the “Cmax compared with S-217622” value is reported as 145%. Also, under setting [25], the “AUC compared with S-217622” value turned out to be 198%, the “Cmax compared with S-217622” value is reported as 125% and the “T1/2 compared with S-217622” value turned out to be 124%.
Consider `[2H]C([2H])([2H])n1cnc(Cn2c(=O)[nH]/c(=N\c3cc4cn(C)nc4cc3Cl)n(Cc3cc(F)c(F)cc3F)c2=O)n1` [SHEN212], for which, for the setting “SD rat, PO, 5.0 mg/kg”, the “AUC0-∞” value turned out to be 62126.14 ng·h/mL and the time of peak concentration (Tmax) came out at 3.67 h. For the setting “rat, PO”, the “AUC compared with S-217 fumaric acid eutectic group” value amounted to 115%, the “AUC compared with S-217622 fumaric acid coproduct combined with niacinamide group” value came out at 124%, the “Cmax compared with S-217 fumaric acid eutectic group” value is given as 132% and the “Cmax compared with S-217622 fumaric acid coproduct combined with niacinamide group” value was determined as 123%. Also, the “T1/2 compared with S-217622 fumaric acid coproduct combined with niacinamide group” value (rat, PO) is 121%.
In the case of `CCC(CC)COC(=O)[C@H](C)N[P@](=O)(OC[C@H]1O[C@@](C#N)(c2ccc3c(N)ncnn23)[C@H](O)[C@@H]1O)Oc1ccccc1` [Remdesivir], the CC50 in [2] was over 1 microns.
`[2H]C([2H])(c1ncn(C)n1)n1c(=O)nc(Nc2cc3cn(C)nc3cc2Cl)n(Cc2cc(F)c(F)cc2F)c1=O` [Compound I-3]: the figures for the half-life at 0.5 μM in [16] and in [17] were 8.28 h and 204 h, respectively.
With `CC(=O)O[C@H]1C(=O)[C@@]2(C)[C@H]([C@H](OC(=O)c3ccccc3)[C@]3(O)C[C@H](OC(=O)[C@H](O)[C@@H](NC(=O)c4ccccc4)c4ccccc4)C(C)=C1C3(C)C)[C@]1(OC(C)=O)CO[C@@H]1C[C@@H]2O` [Pacitaxel], the CC50 in data set [3] (HIHeLa, 3 days, read-out: CC50) amounted to 0.02 µM; in data set [9] (HEp2, 3 days, read-out: CC50), 0.03 µM; in data set [10] (setting [23]) it was 0.0034 µM; in data set [12] (Molt-4, 3 days, read-out: CC50), 0.0027 µM; in data set [15] (A375, 3 days, read-out: CC50) it was 0.0089 µM.
With `C[C@]12CC[C@H]3[C@@H](CCC4=CC(=O)CC[C@@]43C)[C@@H]1CC[C@@H]2O` [Testosterone], the half-life in data set [18] worked out at 36 s. In data set [19], this compound gave a Cl of 3.28 L/h/kg, a Cla of 6112.8 µL/min/mg and a Clape of 660.186 L/h/kg.
In the case of `[2H]C([2H])([2H])n1cnc(Cn2c(=O)nc(Nc3cc4cn(C([2H])([2H])[2H])nc4cc3Cl)n(Cc3cc(F)c(F)cc3F)c2=O)n1` [Compound I-24], in data set [8] (po, 5 mg/kg, SD rat), the AUC(0-inf) is 58300 ng·h/mL, the concentration peaked (Cmax) at 5210 ng/mL and the Tmax was 4 h. This compound also gave a half-life in data set [8] (po, 5 mg/kg) of 3.51 h.
Compound `O=c1nc(NO)ccn1[C@@H]1O[C@H](CO)[C@@H](O)[C@H]1O` [EIDD-1931] registered a CC50 in [2] of over 10 microns.
As to `CC(C)C[C@H](NC(=O)OCc1ccccc1)C(=O)N[C@@H](CC1CCNC1=O)C(O)S(=O)(=O)O` (some centres unmarked) [GC-376], the negative logarithm of the IC50 (pIC50) in data set [20] is 6.97; in data set [21] it was 7.66.
`CNC(=O)c1cc(Oc2ccc(NC(=O)Nc3ccc(Cl)c(C(F)(F)F)c3)cc2)ccn1` [Sorafenib]: the CC50 in [5] (HEK293, 3 days, read-out: CC50) was 5.58 µM; in [11] (HepG2, 3 days, read-out: CC50), 5.32 µM; in [13] (setting [24]) it was 8.72 µM; in data set [14] (MRC-5, 3 days, read-out: CC50), 13.8 µM.
For the compound `C=C(C)[C@H]1Cc2c(ccc3c2O[C@@H]2COc4cc(OC)c(OC)cc4[C@@H]2C3=O)O1` [Rotenone, reference compound], the CC50 turned out to be 0.03 µM in data set [6] (galactose culture HepG2 CC50) and 2.33 µM in data set [6] (glucose culture HepG2 CC50). For the same compound, the “ratio (CC50 Glu/CC50 Gal)” value in data set [7] (human) is 91.7.
For the compound `[2H]C([2H])([2H])n1cnc(Cn2c(=O)n(COC(=O)OC(C)C)/c(=N\c3cc4cn(C)nc4cc3Cl)n(Cc3cc(F)c(F)cc3F)c2=O)n1` [Compound I-19], in data set [8] (po, 5 mg/kg, SD rat), the AUC(0-inf) amounted to 70900 ng·h/mL, the Cmax turned out to be 6180 ng/mL and the Tmax was found to be 3.33 h. The half-life in [8] (po, 5 mg/kg) is 2.91 h.
`[2H]C([2H])([2H])n1cc2cc(Nc3nc(=O)n(Cc4ncn(C)n4)c(=O)n3Cc3cc(F)c(F)cc3F)c(Cl)cc2n1` [Compound I-5] had a half-life at 0.5 μM in data set [17] of 29.9 h.
As for `Cn1cnc(Cn2c(=O)[nH]/c(=N\c3cc4nn(C)cc4cc3Cl)n(Cc3cc(F)c(F)cc3F)c2=O)n1` [CVL201], the CC50 is over 1 microns in [2]; over 100 µM in [3]; over 100 µM in [5]; over 100 µM in [9]; over 100 µM in [10]; over 100 µM in [11]. In addition, the CC50 in [12], in data set [13], in [14] and in data set [15] was over 100 µM in each case. Besides, in data set [22], the pIC50 is 2.30. Moreover, in [8] (po, 5 mg/kg), the AUC(0-inf) is 53900 ng·h/mL. In addition, the Cmax in data set [8] (po, 5 mg/kg) stood at 4520 ng/mL. In data set [8] (po, 5 mg/kg), the half-life was 2.89 h. In addition, the Tmax in [8] (po, 5 mg/kg) came to 4.67 h.

For orientation: pEC50 means the EC50 on a negative log10 scale, so that one unit is a factor of ten. What is called AUC(0-inf) is the area under the concentration-time curve extrapolated to infinity. Higher therefore signals high exposure. Broadly, the Cmax is the maximum level reached in the sampled fluid or tissue. By half-life is commonly meant the time needed for the level to fall by half in the phase considered. The term Tmax denotes the time at which the peak concentration occurs. For orientation: pIC50 means the IC50 on a negative log10 scale, so that one unit is a factor of ten.
